Columns and labels:
[1] = tested on: JHH-6 (Hepatocellular Carcinoma); test: Bliss excess, mean over the matrix (fraction); higher = more synergy
Procedure, shortened: (§1)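 Bliss excess equals the observed combination effect minus the expected value EA + EB − EA·EB, where EA and EB are the effects of each agent alone. Combination Emax is the second-highest inhibition within the matrix. Inhibition was scaled from CellTiter-Glo 2.0 luminescence, with 0 set by vehicle wells and 1 by blank wells, after 72 hours of two-drug dosing of cells plated in 1536-well plates.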

HCC38 (Breast Carcinoma) = test: as above
Procedure, shortened: as §1

[2] = tested on: HOP-92 (Non-Small Cell Lung Carcinoma); test: as above
Procedure, shortened: as §1

[3] = tested on: PA-TU-8902 (Pancreatic Carcinoma); test: as above
Procedure, shortened: as §1

[4] = tested on: SW948 (Colorectal Carcinoma); test: as above
Procedure, shortened: as §1

CS1 (Chondrosarcoma) = test: as above
Procedure, shortened: as §1

[5] = tested on: DOK (Oral Cavity Carcinoma); test: as above
Procedure, shortened: as §1

EW-22 (Ewing's Sarcoma) = test: as above
Procedure, shortened: as §1

HuO9 (Osteosarcoma) = test: as above
Procedure, shortened: as §1

[6] = tested on: MEG-01 (Chronic Myelogenous Leukemia); test: as above
Procedure, shortened: as §1

SK-MEL-1 (Melanoma) = test: as above
Procedure, shortened: as §1

[7] = tested on: ETK-1 (Biliary Tract Carcinoma); test: as above
Procedure, shortened: as §1

[8] = tested on: BICR78 (Oral Cavity Carcinoma); test: as above
Procedure, shortened: as §1

[9] = tested on: KG-1 (Acute Myeloid Leukemia); test: as above
Procedure, shortened: as §1

[10] = tested on: HOP-92 (Non-Small Cell Lung Carcinoma); test: combination Emax (second highest fraction inhibited in the dose matrix, 72 h); higher = more inhibition; extreme values may be limits of the assay
Procedure, shortened: as §1

H4 (Low Grade Glioma) = test: as above
Procedure, shortened: as §1

[11] = tested on: EKVX (Non-Small Cell Lung Carcinoma); test: as above
Procedure, shortened: as §1

[12] = tested on: SK-UT-1 (Other Solid Carcinomas); test: as above
Procedure, shortened: as §1

[13] = tested on: MES-SA (Other Solid Carcinomas); test: as above
Procedure, shortened: as §1

[14] = tested on: KG-1 (Acute Myeloid Leukemia); test: as above
Procedure, shortened: as §1

Row | Compound | Bliss excess [1] | Bliss excess (HCC38 (Breast Carcinoma)) | Bliss excess [2] | Bliss excess [3] | Bliss excess [4] | Bliss excess (CS1 (Chondrosarcoma)) | Bliss excess [5] | Bliss excess (EW-22 (Ewing's Sarcoma)) | Bliss excess (HuO9 (Osteosarcoma)) | Bliss excess [6] | Bliss excess (SK-MEL-1 (Melanoma)) | Bliss excess [7] | Bliss excess [8] | Bliss excess [9] | combination Emax [10] | combination Emax (H4 (Low Grade Glioma)) | combination Emax [11] | combination Emax [12] | combination Emax [13] | combination Emax [14]
1 | CCc1c2c(nc3ccc(O)cc13)-c1cc3c(c(=O)n1C2)COC(=O)[C@]3(O)CC [SN-38] + CN(C)CCCOc1ccc(-c2ccc3ncc4c(c3c2)n(C2CCOCC2)c(=O)n4C)cn1 [AZD0156] (first compound max 0.3 µM, 7x7, partner max 1 µM) | -0.0159 | -0.0453 | 0.027 | 0.0406 | 0.237 | -0.0016 | 0.0323 | 0.0276 | 0.0365 | -0.0413 | -0.0583 | 0.0083 | -0.0014 | -0.0585 | 0.606 | 0.931 | 0.188 | 0.97 | 0.782 | 0.886
2 | CC(=O)Nc1cccc(-n2c(=O)n(C3CC3)c(=O)c3c(Nc4ccc(I)cc4F)n(C)c(=O)c(C)c32)c1 [Trametinib] + Cc1nc(-c2cn3c(n2)-c2ccc(-c4cnn(C(C)(C)C(N)=O)c4)cc2OCC3)n(C(C)C)n1 [Taselisib] (first compound max 1 µM, 7x7, partner max 10 µM) | 0.152 | 0.0219 | 0.14 | 0.108 | 0.0126 | 0.0483 | 0.0767 | -0.0042 | 0.0587 | 0.0324 | 0.0238 | 0.134 | 0.0654 | 0.131 | 0.988 | 0.795 | 0.82 | 0.597 | 0.825 | 0.412
3 | CC1(C)CCC(CN2CCN(c3ccc(C(=O)NS(=O)(=O)c4ccc(NCC5CCOCC5)c([N+](=O)[O-])c4)c(Oc4cnc5[nH]ccc5c4)c3)CC2)=C(c2ccc(Cl)cc2)C1 [Venetoclax] + C1CN(CCC1(C(=O)N[C@@H](CCO)C2=CC=C(C=C2)Cl)N)C3=NC=NC4=C3C=CN4 [Capivasertib] (first compound max 1 µM, 7x7, partner max 3 µM) | -0.0791 | -0.0177 | -0.0245 | -0.0752 | -0.0718 | -0.072 | -0.0532 | 0.0137 | -0.0237 | -0.0349 | -0.0561 | -0.0619 | -0.0342 | 0.041 | 0.402 | 0.473 | 0.302 | 0.34 | 0.355 | 0.516
4 | CC1(C)CCC(CN2CCN(c3ccc(C(=O)NS(=O)(=O)c4ccc(NCC5CCOCC5)c([N+](=O)[O-])c4)c(Oc4cnc5[nH]ccc5c4)c3)CC2)=C(c2ccc(Cl)cc2)C1 [Venetoclax] + C=CCn1c(=O)c2cnc(Nc3ccc(N4CCN(C)CC4)cc3)nc2n1-c1cccc(C(C)(C)O)n1 [AZD1775] (first compound max 1 µM, partner max 1 µM) | -0.0348 | 0.0136 | 0.0046 | -0.0622 | -0.0113 | 0.0589 | -0.0582 | 0.139 | 0.0227 | 0.0146 | -0.0539 | -0.0661 | 0.0011 | 0.201 | 0.48 | 0.85 | 0.172 | 0.921 | 0.787 | 0.913
5 | CC1(C)CCC(CN2CCN(c3ccc(C(=O)NS(=O)(=O)c4ccc(NCC5CCOCC5)c([N+](=O)[O-])c4)c(Oc4cnc5[nH]ccc5c4)c3)CC2)=C(c2ccc(Cl)cc2)C1 [Venetoclax] + CCN(CCO)CCCOc1ccc2c(Nc3cc(CC(=O)Nc4cccc(F)c4)[nH]n3)ncnc2c1 [AZD2811] (first compound max 1 µM, 7x7, partner max 1 µM) | -0.049 | 0.0347 | 0.0135 | -0.0417 | -0.0229 | -0.0259 | -0.0249 | 0.0583 | 0.0203 | -0.0108 | -0.022 | -0.0793 | -0.0393 | 0.0766 | 0.476 | 0.583 | 0.178 | 0.561 | 0.408 | 0.84
6 | CC1(C)CCC(CN2CCN(c3ccc(C(=O)NS(=O)(=O)c4ccc(NCC5CCOCC5)c([N+](=O)[O-])c4)c(Oc4cnc5[nH]ccc5c4)c3)CC2)=C(c2ccc(Cl)cc2)C1 [Venetoclax] + CN(C)CCCOc1ccc(-c2ccc3ncc4c(c3c2)n(C2CCOCC2)c(=O)n4C)cn1 [AZD0156] (first compound max 1 µM, 7x7, partner max 1 µM) | -0.0391 | 0.0361 | 0.0047 | -0.0507 | -0.0001 | 0.0599 | -0.0184 | 0.0003 | 0.0483 | -0.0291 | -0.0397 | -0.021 | 0.0047 | 0.0741 | 0.292 | 0.232 | 0.22 | 0.381 | 0.138 | 0.595
7 | CC1(C)CCC(CN2CCN(c3ccc(C(=O)NS(=O)(=O)c4ccc(NCC5CCOCC5)c([N+](=O)[O-])c4)c(Oc4cnc5[nH]ccc5c4)c3)CC2)=C(c2ccc(Cl)cc2)C1 [Venetoclax] + COc1cc(Nc2ncc3c(n2)-c2ccc(Cl)cc2C(c2c(F)cccc2OC)=NC3)ccc1C(=O)O [Alisertib] (first compound max 1 µM, 7x7, partner max 10 µM) | -0.0311 | -0.0184 | 0.082 | -0.0664 | -0.0996 | -0.0227 | 0.0114 | 0.0313 | 0.135 | 0.0985 | 0.0439 | -0.0385 | -0.0276 | 0.273 | 0.57 | 0.814 | 0.646 | 0.458 | 0.671 | 1
